# Results taken from US20040087561A1, “Treatment of sexual dysfunction” (priority 2000, published 2004).
# Experiments:
# [1] = tested on: ovariectomised female Sprague Dawley rats; assay: Female rat sexual proceptivity (time investigating male vs female stimulus); format: in vivo
# Method: (§1) Ovariectomised adult female Sprague Dawley rats (180-200 g, from Charles River) were housed in groups of 6 in a reversed lighting system of 12 h light:dark (lights off 7.00-19.00 h). Two weeks after ovariectomy they were used for sexual activity tests. The experiments started at least 5 h into the dark period.
# Tests were carried out in a circular arena of 90 cm diameter, surrounded by a 30 cm high wall. Two small cages with wire-mesh front (15×15 cm) are fixed into the wall such that the front of the cage is <> with the wall and the 2 cages are opposite each other. They contained two stimuli animals: an intact sexually experienced male and a receptive female (ovariectomised, primed with 5 μg oestradiol benzoate dissolved in corn oil and injected subcutaneously 48 hours before the test and with 0.5 mg of progesterone four hours before the test). Sexually naive test and control animals were used. Forty eight hours before the tests, both the test and control animals were primed with 5 μg oestradiol benzoate. For animals used as positive controls, progesterone (0.5 mg/0.1 ml) was dissolved in corn oil and administered subcutaneously (s.c.), 4 h before the test. Test and control animals were introduced one at a time for 10 minute periods into the arena. During the 10 min test, the time that the test or positive control animal spent investigating each stimulus animal was noted. The arena was thoroughly cleaned between animals. The position of the male/female stimuli boxes was randomised between animals, in order to avoid place preference. The difference in the percentage of time spent investigating the male minus the female stimuli was calculated, out of the total time spent investigating stimuli animals.
# Compound (1) was dissolved in 100% β-cyclodextrin and then diluted with saline to a final solution of 50% 2-hydroxypropyl-β-cyclodextrin. It was administered intraperitoneally (i.p.) at doses of 3 and 10 mg/kg, in a dosing volume of 1 ml/kg, 1 h before tests. Progesterone (0.5 mg/0.1 ml) was dissolved in corn oil and administered subcutaneously (s.c.), 4 h before test, as a positive control.
# Ovariectomised adult female Sprague Dawley rats (180-200 g) were housed in groups of 5 in a reversed lighting system of 12 h light:dark (lights off 5.00-17.00 h). They were used for the experiments at least two weeks after ovariectomy. Forty eight hours before tests, the animals were primed with oestradiol benzoate (5 μg/0.1 ml in corn oil, s.c.). On day 1, progesterone (0.5 mg/0.1 ml, in corn oil, s.c.) was administered to one of the groups 4 h before tests, as a positive control. Compound (1) (15 mg/kg, i.p.) was administered in 50% 2-hydroxypropyl-β-cyclodextrin, 1 h before tests. The test lasted 10 minutes and was carried out as described before. The difference in the percentage of time spent investigating the male minus the female stimuli was calculated, out of the total time spent investigating stimuli animals. Animals were submitted to a test on day 1 and on day 15. From day 2 to 14 the Compound (1) group received a daily injection of the compound (15 mg/kg, i.p.), while both the vehicle and the progesterone groups received an injection of vehicle. On day 15 the test took place again, as described for day 1.
# Ovariectomised female rats (Sprague Dawley, obtained from Charles River, UK) were stereotaxically implanted (coordinates 0.89 mm behind Bregma, 1.3 mm lateral and 2.5 mm vertical) with stainless steel cannulae (6 mm long, O.D. 0.75 mm), held in place with dental cement. Animals were housed in groups of three and returned to a reversed lighting system of 12 h light:dark (lights off 5.00-17.00 h). Correct placement of the cannulae was assessed post-mortem. Rats were used for tests two weeks after ovariectomy (one week after cannulation). The experiments started at least 5 h into the dark period. […]
# [2] = tested on: ovariectomised female Sprague Dawley rats; assay: Female rat sexual receptivity (lordosis quotient); format: in vivo; settings: Example 2; quinelorane 6.25 μg/kg s.c., 90 min; Compound (1) 10 mg/kg i.p., 1 h
# Method: as §1
# Compound (1) was dissolved in 100% β-cyclodextrin and then diluted with saline to a final solution of 50% 2-hydroxypropyl-β-cyclodextrin. It was administered intraperitoneally (i.p.) at a dose of 10 mg/kg, in a dosing volume of 1 ml/kg. Quinelorane (6.25 μg/kg) was dissolved in water and administered s.c. as positive control. Forty eight hours before testing, ovariectomised female rats (as described above), were primed with 5 μg oestradiol benzoate dissolved in corn oil and injected subcutaneously. […] The females were placed with a series of vigorous male rats and subjected to 10 mounts.
# The lordotic response of the animal was recorded and expressed as a percentage of the mounts (i.e. lordosis quotient, LQ), as previously described. Animals showing LQ<20 were considered non-receptive and were included in the study. Each rat was tested prior to administration of the compound and then tested similarly post-injection. The pre-treatment times were 1 h for Compound (1) and vehicle (50% β-cyclodextrin, i.p.) or 90 min for quinelorane.
# The above compound was dissolved in PEG200 vehicle and administered orally. Quinelorane dihydrochloride (LY 163,502, 6.25 μg/kg) was dissolved in water and administered subcutaneously (s.c.), as a positive control. Both compounds were administered in a 1 ml/kg volume.
# Forty eight hours before tests, the animals were primed with 5 μg oestradiol benzoate (Sigma Chemical. Co. Ltd., UK) dissolved in corn oil and injected subcutaneously. The females were placed with a series of vigorous male rats and subjected to 10 mounts. The lordotic response of the animal was recorded and expressed as a percentage of the mounts (i.e. lordosis quotient, LQ). […] Animals showing higher LQ were not included in the study. Each rat was tested prior to administration of the compound and then tested similarly at 1 h and 90 min post-injection of the above compound or quinelorane respectively.
smiles,measurement,setting,value
"COc1ccc(C2(CNC(=O)[C@](C)(Cc3c[nH]c4ccccc34)NC(=O)Nc3ccc([N+](=O)[O-])cc3)CCCCC2)nc1 [Compound (1), (S) 3-(1H-Indol-3-yl)-N-[1-(5-methoxy-pyridin-2-yl)-cyclohexyl-methyl]-2-methyl-2-[3-(4-nitro-phenyl)-ureido]-propionamide]","effect on proceptivity, day 1","[1]; day 1, Compound (1) 15 mg/kg i.p. 1 h before, progesterone 0.5 mg/0.1 ml s.c. 4 h before, vs vehicle, P<0.01",stimulatory effect on proceptivity
same,"MED, percentage of time spent investigating the male stimulus (proceptivity)","[1]; i.c.v., 3-30 μg/rat, 10 min before test",10 µg
same,percentage of time spent investigating the male stimulus (proceptivity),"[1]; i.c.v., dose-dependently 3-30 μg/rat, 10 min before test",increased the percentage of time spent investigating the male stimulus
same,"MED, percentage of time spent investigating the male stimulus (proceptivity)","[1]; i.p., 3 and 10 mg/kg, 1 h before test, 50% 2-hydroxypropyl-β-cyclodextrin",10 mg/kg
same,percentage of time spent investigating the male stimulus (proceptivity),"[1]; i.p., dose-dependently 3 mg/kg-10 mg/kg, 1 h before test, vs vehicle",increased the percentage of time spent investigating the male stimulus
same,body weight or general behaviour,[1]; repeated administration 15 mg/kg i.p. daily for 15 days,no changes in body weight or general behaviour
same,lordosis quotient (LQ) compared to LQ before administration,[2],significant (P<0.05) stimulatory effect on the LQ
